Measured values taken from patent US20230331720A1, “MEDIUM- OR MACRO-CYCLIC BENZYL-SUBSTITUTED HETEROCYCLE DERIVATIVES AND THEIR USES AS OREXIN-2 RECEPTOR AGONISTS” (Orexia Therapeutics Limited, priority 2020, published 2023).

Molecular target: T1, human orexin type 2 receptor (hOX2R) (Homo sapiens, UniProt O43614)
T1 construct: expressed in transfected cells
T1 sequence (O43614 1-444): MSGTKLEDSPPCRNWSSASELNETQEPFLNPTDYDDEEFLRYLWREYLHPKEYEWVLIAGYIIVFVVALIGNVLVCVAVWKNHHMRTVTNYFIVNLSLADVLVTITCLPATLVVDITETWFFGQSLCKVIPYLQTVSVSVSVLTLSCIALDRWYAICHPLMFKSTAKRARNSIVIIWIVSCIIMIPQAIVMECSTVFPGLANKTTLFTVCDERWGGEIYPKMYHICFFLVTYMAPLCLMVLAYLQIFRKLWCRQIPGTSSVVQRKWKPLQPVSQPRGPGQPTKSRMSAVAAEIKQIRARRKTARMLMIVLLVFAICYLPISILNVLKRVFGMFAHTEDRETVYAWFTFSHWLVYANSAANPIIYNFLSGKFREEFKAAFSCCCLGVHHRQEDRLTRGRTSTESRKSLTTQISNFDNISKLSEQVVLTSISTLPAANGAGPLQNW
Assay: Orexin type 2 receptor agonist activity, intracellular Ca2+ (FLIPR TETRA)
Type: cell-based
Settings: CHO cells expressing hOX2R; Ca2+ fluorescence area
Description: Stable cell line generation. Obtainment of cells stably expressing either human orexin type 2 or human orexin type 1 receptor; to obtain a stable cell line the Orexin receptor cDNA was inserted into pcDNA3.1(+) plasmid vector and clones identified by G418 drug resistance selection. […] A single clone for OX2R-CHO and OX1R-CHO were grown in bulk and frozen to generate a cell bank for routine screening.
Measurement of orexin type 2 receptor agonist activity. Chinese hamster ovary (CHO) cells expressing human orexin type 2 receptor (hOX2R) or human orexin type 1 receptor (hOX1R) were seeded in each well of 384 well black clear bottom plates (BD Flacon) at 10,000 cells per well and cultured for 24 hr in an Ham's F12 (Gibco) medium containing 10% fetal calf serum (Sigma Aldrich) under the conditions of 37° C., 5% CO2. After removal of the medium, 50 μl of assay buffer 1 (0.1% bovine serum albumin (Sigma Aldrich), 20 mM HEPES (Molecular Dimensions), […] probenecid (Sigma Aldrich), 1× Calcium 5 dye (Molecular Devices) in Hank's balanced salt solution (Invitrogen)) was added, and the cells were incubated for 60 min under the conditions of 37° C., 5% CO2. A test compound was dissolved in dimethyl sulfoxide (Sigma Aldrich) to 10 mM, and then diluted with assay buffer 2 (20 mM HEPES, Hank's balanced salt solution, 0.1% bovine serum albumin). For the reaction, a test compound solution (10 μl) was added using Fluorescent Imaging Plate Reader TETRA (FLIPR TETRA: manufactured by Molecular Devices), a fluorescence value (excitation wavelength 488 nm, measurement wavelength 570 nm) of each well was measured every one second for 2 min, and the agonist activity was determined using the area of the fluorescence value as an indicator of intracellular Ca^2+ concentration. The agonist activity of the test compound was calculated assuming that the fluorescence value of the well added with only the dilution buffer was 0% and the fluorescence value of the well added with 10 nM human orexin A (Tocris) buffer was 100%. As used herein, Emax indicates the value at 10 μM concentration when orexin A is converted to a full agonist (maximum value of agonist activity: 100%).

Row | SMILES | hOx2 pEC50
1 | CCS(=O)(=O)NC1CCN2C(=O)OCCOc3ccccc3-c3cccc(c3)CC12 (centres unmarked) [Compound A1-22, N-(5-oxo-6,9-dioxa-4(2,1)-pyrrolidina-1(1,2),2(1.3)-dibenzenacyclo-nonaphane-4^3-yl)ethanesulfonamide] | ++ (7.0≤“++”<8.0)
2 | CCS(=O)(=O)NC1CCN2C(=O)NCCCCCOc3ccccc3-c3cccc(c3)CC12 (centres unmarked) [Compound A1-23, N-(5-oxo-12-oxa-6-aza-4(2,1)-pyrrolidina-1(1,2),2(1,3)-dibenzenacyclo-dodecaphane-43-yl)ethanesulfonamide] | + (6.0≤“+”<7.0)

Same assay, conditions: CHO cells expressing hOX2R; Ca2+ fluorescence area; read-out: hOx2 pEC50 (converted)

Row | SMILES | EC50 [nM]
3 | CS(=O)(=O)NC1CCCN2C(=O)CCCCCCc3ccccc3-c3cccc(c3)CC12 (racemic) [Compound A1-28, N-(5-oxo-4(2,1)-piperidina-1(1,2),2(1,3)-dibenzenacycloundecaphane-4^3-yl)methanesulfonamide] | 10 to 100
4 | CCS(=O)(=O)NC1CCN2C(=O)CCCCCCc3c(F)cc(F)cc3-c3cccc(c3)CC12 (racemic) [Compound A1-29, N-(1^3,1^5-difluoro-5-oxo-4(2,1)-pyrrolidina-1(1,2),2(1,3)-dibenzenacyclo-undecaphane-4^3-yl)ethanesulfonamide] | 100 to 1000
5 | CCS(=O)(=O)NC1CCN2C(=O)NCCOc3ccccc3-c3cccc(c3)CC12 (racemic) [Compound A1-30, N-(5-oxo-9-oxa-6-aza-4(2,1)-pyrrolidina-1(1,2),2(1,3)-dibenzenacyclo-nonaphane-4^3-yl)ethanesulfonamide] | 10 to 100
6 | CCS(=O)(=O)NC1CCN2C(=O)CCCOc3ccccc3-c3cccc(c3)CC12 (racemic) [Compound A1-31, N-(5-oxo-9-oxa-4(2,1)-pyrrolidina-1(1.2),2(1,3)-dibenzenacyclo-nonaphane-4^3-yl)ethanesulfonamide] | 100 to 1000
7 | CCS(=O)(=O)NC1CCN2C(=O)CCCCCCc3ccccc3-c3cccc(c3)CC12 (racemic) [Compound A1-39, N-(5-oxo-4(2,1)-pyrrolidina-1(1,2),2(1,3)-dibenzenacycloundecaphane-4^3-yl)ethanesulfonamide] | 1 to 10
8 | CCS(=O)(=O)NC1CCN2C(=O)CCC/C=C/Cc3ccccc3-c3cccc(c3)CC12 (racemic) [Compound A1-41, (E/Z)—N-(5-oxo-4(2,1)-pyrrolidina-1(1.2),2(1,3)-dibenzenacyclo-undecaphan-9-en-4^3-yl)ethanesulfonamide] | 10 to 100
9 | CCS(=O)(=O)NC1CCN2C(=O)CCCCCc3ccccc3-c3cccc(c3)CC12 (racemic) [Compound A1-48, N-(5-oxo-4(2,1)-pyrrolidina-1(1,2),2(1,3)-dibenzenacyclodecaphane-4^3-yl)ethanesulfonamide] | 10 to 100
10 | CCS(=O)(=O)NC1CCN2C(=O)NCCCCc3ccccc3-c3cccc(c3)CC12 (racemic) [Compound A1-49, N-(5-oxo-6-aza-4(2,1)-pyrrolidina-1(1,2),2(1,3)-dibenzenacyclodecaphane-4^3-yl)ethanesulfonamide] | 10 to 100
11 | CCS(=O)(=O)NC1CCN2C(=O)NCCCCCc3ccccc3-c3cccc(c3)CC12 (racemic) [Compound A1-50, N-(5-oxo-6-aza-4(2,1)-pyrrolidina-1(1,2),2(1,3)-dibenzenacyclo-undecaphane-43-yl)ethanesulfonamide] | 1 to 10
12 | CCS(=O)(=O)NC1CCN2C(=O)NC/C=C/Cc3ccccc3-c3cccc(c3)CC12 (racemic) [Compound A1-51, (E/Z)—N-(5-oxo-6-aza-4(2,1)-pyrrolidina-1(1,2),2(1.3)-dibenzenacyclo-decaphan-8-en4^3-yl)ethanesulfonamide] | 10 to 100
13 | CCS(=O)(=O)NC1CCN2C(=O)NCC/C=C/Cc3ccccc3-c3cccc(c3)CC12 (racemic) [Compound A1-52, (E/Z)—N-(5-oxo-6-aza-4(2,1)-pyrrolidina-1(1,2),2(1.3)-dibenzenacyclo-undecaphan-9-en-43-yl)ethanesulfonamide] | 1 to 10
14 | CCS(=O)(=O)NC1CCN2C(=O)CC/C=C/Cc3ccccc3-c3cccc(c3)CC12 (racemic) [Compound A1-53, (E/Z)—N-(5-oxo-4(2,1)-pyrrolidina-1(1,2),2(1,3)-dibenzenacyclodecaphan-8-en-4^3-yl)ethanesulfonamide] | 10 to 100
15 | CCS(=O)(=O)NC1CCN2C(=O)OCCCCCc3ccccc3-c3cccc(c3)CC12 (racemic) [Compound A1-54, N-(5-oxo-6-oxa-4(2,1)-pyrrolidina-1(1,2),2(1.3)-dibenzenacyclo-undecaphane-4^3-yl)ethanesulfonamide] | 10 to 100
16 | CCS(=O)(=O)NC1CCN2C(=O)OCC/C=C\Cc3ccccc3-c3cccc(c3)CC12 (racemic) [Compound A1-56, (E/Z)—N-(5-oxo-6-oxa-4(2,1)-pyrrolidina-1(1,2),2(1,3)-dibenzenacyclo-undecaphan-9-en-4^3-yl)ethanesulfonamide] | 100 to 1000
17 | CCS(=O)(=O)N[C@H]1CCN2C(=O)NCCCCCc3ccccc3-c3cccc(c3)C[C@@H]12 (single isomer, unassigned) [Compound A1-42, N-((4^2S,4^3S)-5-oxo-6-aza-4(2,1)-pyrrolidina-1(1,2),2(1,3)-dibenzenacycloundecaphane-4^3-yl)ethanesulfonamide] | 0.1 to 1
18 | CCS(=O)(=O)N[C@@H]1CCN2C(=O)NCCCCCc3ccccc3-c3cccc(c3)C[C@H]12 (single isomer, unassigned) [Compound A1-43, N-((4^2R,4^3R)-5-oxo-6-aza-4(2,1)-pyrrolidina-1(1,2),2(1,3)-dibenzenacycloundecaphane-4^3-yl)ethanesulfonamide] | 100 to 1000
19 | CS(=O)(=O)N[C@@H]1CCCN2C(=O)NCCOc3ccccc3-c3cccc(c3)C[C@H]12 [Compound A1-3, N-((4^2R,4^3R)-5-oxo-9-oxa-6-aza-4(2,1)-piperidina-1(1,2),2(1,3)-dibenzenacyclo-nonaphane-4^3-yl)methanesulfonamide] | 1 to 10
20 | CS(=O)(=O)N[C@H]1CCCN2C(=O)NCCOc3ccccc3-c3cccc(c3)C[C@@H]12 [Compound A1-4, N-((4^2S,4^3S)-5-oxo-9-oxa-6-aza-4(2,1)-piperidina-1(1,2),2(1,3)-dibenzenacyclo-nonaphane-4^3-yl)methanesulfonamide] | 100 to 1000
21 | CCS(=O)(=O)N[C@H]1CCN2C(=O)NCCOc3ccccc3-c3cccc(c3)C[C@@H]12 [Compound A1-7, N-((4^2S,4^3S)-5-oxo-9-oxa-6-aza-4(2,1)-pyrrolidina-1-(1,2),2-(1,3)-dibenzenacyclo-nonaphane-4′-yl)ethanesulfonamide] | 10 to 100
22 | CCS(=O)(=O)N[C@H]1CCN2C(=O)N(C)CCCCCc3ccccc3-c3cccc(c3)C[C@@H]12 [Compound A1-10, N-((4^2S,4^3S)-6-methyl-5-oxo-6-aza-4(2,1)-pyrrolidina-1(1,2),2(1,3)-dibenzena-cycloundecaphane-4^3-yl)ethanesulfonamide] | 0.1 to 1
23 | CS(=O)(=O)NC1CCCN2C(=O)CCCc3ccccc3-c3cccc(c3)CC12 (centres unmarked) [Compound A1-59] | 10 to 100
24 | CS(=O)(=O)N[C@H]1CCCN2C(=O)OCCOc3ccccc3-c3cccc(c3)C[C@@H]12 [Compound A1-60] | 10 to 100
25 | CN1CCOc2ccccc2-c2cccc(c2)C[C@H]2[C@@H](NS(C)(=O)=O)CCN2C1=O [Compound A1-61] | 10 to 100
26 | CS(=O)(=O)NC1CCCN2C(=O)OCCOc3ccccc3-c3cccc(c3)CC12 (centres unmarked) [Compound A1-63] | 10 to 100
27 | CS(=O)(=O)N[C@H]1CCCN2C(=O)CCCOc3ccccc3-c3cccc(c3)C[C@@H]12 [Compound A1-64] | 10 to 100
28 | CCS(=O)(=O)NC1CCN2C(=O)N3CC[C@H]3COc3ccccc3-c3cccc(c3)CC12 (some centres unmarked) [Compound A1-65] | 10 to 100
29 | CS(=O)(=O)N[C@H]1CCN2C(=O)C(F)(F)CCCCCc3ccccc3-c3cccc(c3)C[C@@H]12 [Compound A1-66] | 10 to 100
30 | CS(=O)(=O)N[C@H]1CCCN2C(=O)CCCc3ccccc3-c3cccc(c3)C[C@@H]12 [Compound A1-67] | 10 to 100
31 | CS(=O)(=O)N[C@H]1CCCN2C(=O)CCOc3ccccc3-c3cccc(c3)C[C@@H]12 [Compound A1-68] | 10 to 100
32 | CCS(=O)(=O)N[C@H]1CCN2C(=O)N(C)CCOc3ccccc3-c3cccc(c3)C[C@@H]12 [Compound A1-71] | 10 to 100
